Legend:
[1] = xn = mol fraction of the nth substance listed; settings: 298.15 K, 101.3 kPa, Liquid
[2] = heat capacity at constant pressure per volume; xn = mol fraction of the nth substance listed; settings: 298.15 K, 101.3 kPa, Liquid, Flow calorimetry
[3] = 298.15 K; 101.33 kPa; Liquid
[4] = molar heat capacity at constant pressure; settings: 298.15 K; 101.33 kPa; Liquid; Flow calorimetry

CCCCCO [pentan-1-ol] + O
Settings	heat capacity, [2] [J/K/m3]	mass density, [1] [kg/m3]
x1 = 0.001069	4174500	996.21
x1 = 0.001645	4177900	995.78
x1 = 0.001775	4178800	995.68
x1 = 0.001916	4179400	995.57
x1 = 0.002185	4181300	995.37
x1 = 0.002474	4182900	995.16
x1 = 0.002743	4184600	994.96
x1 = 0.003049	4186100	994.73
x1 = 0.003529	4189200	994.4

CC(C)O [propan-2-ol]
Settings	mass density [kg/m3]	molar heat capacity at constant pressure [J/K/mol]
[3]	780.72	–
[4]	–	155.2

CCC(C)O (centres undefined) [butan-2-ol] + O
Settings	heat capacity, [2] [J/K/m3]	mass density, [1] [kg/m3]
x1 = 0.001648	4177000	995.99
x1 = 0.00244	4181300	995.46
x1 = 0.003665	4188100	994.69
x1 = 0.006146	4201900	993.17
x1 = 0.006234	4202800	993.15
x1 = 0.008153	4213300	991.98
x1 = 0.009049	4218100	991.43
x1 = 0.01047	4226800	990.68
x1 = 0.01411	4248500	988.8
x1 = 0.01461	4251800	988.51
x1 = 0.01766	4270000	987

CCCCO [butan-1-ol]
Settings	mass density [kg/m3]	molar heat capacity at constant pressure [J/K/mol]
[3]	805.62	–
[4]	–	177.1

CCC(C)(C)O [2-methylbutan-2-ol]
Settings	mass density [kg/m3]	molar heat capacity at constant pressure [J/K/mol]
[3]	804.01	–
[4]	–	251.1

CC(C)(C)CO [2,2-dimethyl-1-propanol] + O
Settings	heat capacity, [2] [J/K/m3]	mass density, [1] [kg/m3]
x1 = 0.001702	4176200	995.77
x1 = 0.002268	4178900	995.36
x1 = 0.002665	4181000	995.08
x1 = 0.003113	4183100	994.74
x1 = 0.003563	4185300	994.42
x1 = 0.004331	4189100	993.87
x1 = 0.004832	4191800	993.52

CCCCCO [pentan-1-ol]
Settings	mass density [kg/m3]	molar heat capacity at constant pressure [J/K/mol]
[3]	810.68	–
[4]	–	208.8

CC(C)CO [2-methyl-1-propanol]
Settings	mass density [kg/m3]	molar heat capacity at constant pressure [J/K/mol]
[3]	797.63	–
[4]	–	181.9

CC(C)(C)O [2-methylpropan-2-ol] + O
Settings	heat capacity, [2] [J/K/m3]	mass density, [1] [kg/m3]
x1 = 0.000883	4173400	996.41
x1 = 0.001796	4178600	995.74
x1 = 0.002923	4185200	994.98
x1 = 0.004051	4192000	994.22
x1 = 0.006409	4206500	992.64
x1 = 0.00867	4220900	991.22
x1 = 0.01153	4239100	989.43
x1 = 0.01716	4276400	986.35

CC(C)CCO [3-methylbutan-1-ol] + O
Settings	heat capacity, [2] [J/K/m3]	mass density, [1] [kg/m3]
x1 = 0.000488	4170700	996.67
x1 = 0.000691	4171700	996.51
x1 = 0.001002	4173400	996.29
x1 = 0.001048	4173600	996.22
x1 = 0.00119	4174300	996.13
x1 = 0.001204	4174400	996.13
x1 = 0.001362	4175200	995.99
x1 = 0.001742	4177100	995.68
x1 = 0.002039	4178600	995.47
x1 = 0.002063	4178800	995.45
x1 = 0.002225	4179800	995.36

CC(C)C(C)O (centres undefined) [3-methyl-2-butanol] + O
Settings	heat capacity, [2] [J/K/m3]	mass density, [1] [kg/m3]
x1 = 0.000786	4172900	996.49
x1 = 0.001489	4177000	996.01
x1 = 0.001981	4180000	995.68
x1 = 0.004452	4194900	994.09
x1 = 0.005029	4198500	993.72
x1 = 0.006358	4206900	992.91
x1 = 0.007481	4213800	992.25
x1 = 0.008252	4218900	991.83

CCC(C)(C)O [2-methylbutan-2-ol] + O
Settings	heat capacity, [2] [J/K/m3]	mass density, [1] [kg/m3]
x1 = 0.00166	4180000	995.9
x1 = 0.001774	4181000	995.84
x1 = 0.002795	4188600	995.15
x1 = 0.005273	4207000	993.56
x1 = 0.006999	4220500	992.51
x1 = 0.009307	4239300	991.15
x1 = 0.01213	4263400	989.63
x1 = 0.01355	4275900	988.89

CC(C)O [propan-2-ol] + O
Settings	heat capacity, [2] [J/K/m3]	mass density, [1] [kg/m3]
x1 = 0.001072	4172300	996.38
x1 = 0.001923	4175600	995.85
x1 = 0.003078	4179900	995.16
x1 = 0.00413	4183900	994.53
x1 = 0.005976	4191200	993.44
x1 = 0.009312	4204200	991.51
x1 = 0.01437	4225200	988.91
x1 = 0.01665	4234700	987.73

CC(C)CO [2-methyl-1-propanol] + O
Settings	heat capacity, [2] [J/K/m3]	mass density, [1] [kg/m3]
x1 = 0.001575	4175200	995.99
x1 = 0.00181	4176000	995.84
x1 = 0.003631	4184200	994.66
x1 = 0.006044	4195700	993.15
x1 = 0.009083	4209900	991.35
x1 = 0.01143	4220800	989.99
x1 = 0.01647	4247000	987.23

CC(C)C(C)O (centres undefined) [3-methyl-2-butanol]
Settings	mass density [kg/m3]	molar heat capacity at constant pressure [J/K/mol]
[3]	812.31	–
[4]	–	249.5

CCCCO [butan-1-ol] + O
Settings	heat capacity, [2] [J/K/m3]	mass density, [1] [kg/m3]
x1 = 0.001656	4176100	995.94
x1 = 0.003814	4186600	994.54
x1 = 0.005524	4195100	993.48
x1 = 0.006663	4200400	992.78
x1 = 0.009163	4213100	991.32
x1 = 0.01415	4239900	988.57
x1 = 0.01604	4251000	987.56

CCCO [propan-1-ol] + O
Settings	heat capacity, [2] [J/K/m3]	mass density, [1] [kg/m3]
x1 = 0.000792	4170900	996.59
x1 = 0.002096	4175200	995.84
x1 = 0.002978	4178200	995.36
x1 = 0.006166	4189500	993.64
x1 = 0.008272	4197000	992.56
x1 = 0.01185	4209800	990.81
x1 = 0.01732	4230600	988.27
x1 = 0.02089	4243100	986.68

CCC(O)CC [3-pentanol]
Settings	mass density [kg/m3]	molar heat capacity at constant pressure [J/K/mol]
[3]	815.3	–
[4]	–	254.6

CCCO [propan-1-ol]
Settings	mass density [kg/m3]	molar heat capacity at constant pressure [J/K/mol]
[3]	799.52	–
[4]	–	144.3

CCC(C)CO (centres undefined) [2-methyl-1-butanol] + O
Settings	heat capacity, [2] [J/K/m3]	mass density, [1] [kg/m3]
x1 = 0.000842	4172700	996.43
x1 = 0.000975	4173400	996.33
x1 = 0.001072	4174000	996.28
x1 = 0.001376	4175300	996.04
x1 = 0.001398	4175600	996.04
x1 = 0.00154	4176300	995.95
x1 = 0.002056	4179200	995.56
x1 = 0.002325	4180700	995.4
x1 = 0.002361	4180800	995.38
x1 = 0.002467	4181400	995.28
x1 = 0.002771	4182700	995.09
x1 = 0.002868	4183400	995.02
x1 = 0.002988	4184000	994.91
x1 = 0.003068	4184200	994.84
x1 = 0.003107	4184500	994.81
x1 = 0.003446	4186500	994.6

CCC(C)CO (centres undefined) [2-methyl-1-butanol]
Settings	mass density [kg/m3]	molar heat capacity at constant pressure [J/K/mol]
[3]	814.54	–
[4]	–	215

CCC(O)CC [3-pentanol] + O
Settings	heat capacity, [2] [J/K/m3]	mass density, [1] [kg/m3]
x1 = 0.000803	4173700	996.49
x1 = 0.001033	4175300	996.33
x1 = 0.001252	4176900	996.18
x1 = 0.001864	4181400	995.77
x1 = 0.002399	4185100	995.4
x1 = 0.003282	4191500	994.83
x1 = 0.005357	4206400	993.51
x1 = 0.005689	4209600	993.32
x1 = 0.006773	4217300	992.61

CC(C)CCO [3-methylbutan-1-ol]
Settings	mass density [kg/m3]	molar heat capacity at constant pressure [J/K/mol]
[3]	804.18	–
[4]	–	209.3

CCCC(C)O (centres undefined) [pentan-2-ol] + O
Settings	heat capacity, [2] [J/K/m3]	mass density, [1] [kg/m3]
x1 = 0.001235	4176700	996.1
x1 = 0.001831	4180800	995.66
x1 = 0.002163	4182900	995.4
x1 = 0.002785	4187300	994.95
x1 = 0.003519	4192400	994.4
x1 = 0.004937	4202200	993.42
x1 = 0.0059	4209100	992.73
x1 = 0.00695	4217100	992.05

CCC(C)O (centres undefined) [butan-2-ol]
Settings	mass density [kg/m3]	molar heat capacity at constant pressure [J/K/mol]
[3]	802.07	–
[4]	–	197.8

CCCC(C)O (centres undefined) [pentan-2-ol]
Settings	mass density [kg/m3]	molar heat capacity at constant pressure [J/K/mol]
[3]	804.55	–
[4]	–	235.3

— the NIST ThermoML archive (doi:10.1021/je049738c)
